The values that follow come from patent US20010041706A1, “Blockade of taxane metabolism” (priority 2000, published 2001).

One series has as its target T1, CYP2C8 (Homo sapiens, UniProt P10632).
T1 sequence (P10632 1-490): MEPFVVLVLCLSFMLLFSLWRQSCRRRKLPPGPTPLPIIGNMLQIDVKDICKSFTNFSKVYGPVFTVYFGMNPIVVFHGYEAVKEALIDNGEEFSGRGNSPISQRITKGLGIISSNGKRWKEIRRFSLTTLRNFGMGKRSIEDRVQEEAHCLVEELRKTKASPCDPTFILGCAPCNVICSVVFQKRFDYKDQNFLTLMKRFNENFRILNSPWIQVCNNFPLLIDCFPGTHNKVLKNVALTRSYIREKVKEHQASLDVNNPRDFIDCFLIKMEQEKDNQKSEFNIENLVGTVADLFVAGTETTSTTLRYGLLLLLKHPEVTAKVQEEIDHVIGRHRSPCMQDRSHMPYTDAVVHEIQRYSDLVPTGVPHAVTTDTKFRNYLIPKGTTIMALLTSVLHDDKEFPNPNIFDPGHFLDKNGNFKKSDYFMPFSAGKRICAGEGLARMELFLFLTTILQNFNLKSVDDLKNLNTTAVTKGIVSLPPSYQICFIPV
The following applies: previously reported; cited from earlier work.

In series [1] the test system is paclitaxel metabolism. As to the kind of experiment: Paclitaxel metabolism in primary human hepatocytes, overall. Format: cell-based. The note with it: second experiment (FIG. 4), highest concentration tested (50 μM), 24 hours.
In series [2] the target is cytochrome P450 3A4 (CYP3A4) (Homo sapiens, UniProt P08684). The following applies: hepatocytes.
The target of series [3] is T2, cytochrome P450 2C8 (CYP2C8) (Homo sapiens, UniProt P10632).
T2 sequence (P10632 1-490): T1 sequence (P10632 1-490)
The note with it: hepatocytes.

Series [4] is described as follows: Quercetin levels in mouse liver after oral dose (HPLC). Format: in vivo. The following applies: mice receiving oral quercetin 1000 mg/kg. The protocol:
Quercetin twelve hours prior to paclitaxel had no effect on system exposure. […] The peak levels of quercetin measured in the livers of mice receiving oral supplementation were approximately 15 μM, and occurred between 8 and 12 hours after the dose.

Series [5] deals with paclitaxel metabolism. The following applies: Jamis-Dow et al., Am J. Clin. Oncol. 1997; cited from earlier work.

cytochrome P450 3A4 (CYP3A4), sequence (P08684 whole entry): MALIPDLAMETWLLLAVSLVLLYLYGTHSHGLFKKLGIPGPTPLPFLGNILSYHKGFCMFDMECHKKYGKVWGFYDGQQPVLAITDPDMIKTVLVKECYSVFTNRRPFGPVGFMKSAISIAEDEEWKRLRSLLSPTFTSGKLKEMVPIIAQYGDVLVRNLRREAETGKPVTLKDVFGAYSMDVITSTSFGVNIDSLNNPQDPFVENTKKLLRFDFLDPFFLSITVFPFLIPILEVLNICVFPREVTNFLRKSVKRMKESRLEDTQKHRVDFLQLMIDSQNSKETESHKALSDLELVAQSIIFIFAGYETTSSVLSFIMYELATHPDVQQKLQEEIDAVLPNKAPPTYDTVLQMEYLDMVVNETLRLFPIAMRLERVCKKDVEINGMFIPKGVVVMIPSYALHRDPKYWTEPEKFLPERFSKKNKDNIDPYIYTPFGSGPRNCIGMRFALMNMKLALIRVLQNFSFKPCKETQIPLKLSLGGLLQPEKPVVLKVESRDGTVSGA

On to `O=C1C[C@@H](c2ccc(O)cc2)Oc2cc(O)cc(O)c21` [naringenin], for which the “inhibition of the metabolism of paclitaxel by CYP2C8” value (“inhibition … of paclitaxel by CYP2C8” for short) at CYP2C8 was “selectively inhibit”.
In the case of `O=c1c(O)c(-c2ccc(O)c(O)c2)oc2cc(O)cc(O)c12` [quercetin], the “effect on paclitaxel metabolism” value with paclitaxel metabolism [1] is on record as “modest effect”. For the same compound, the “inhibition of paclitaxel metabolism by CYP3A4” value in series [2] is recorded as “concentration-dependent manner”. For the same compound, the “inhibition of paclitaxel metabolism by CYP2C8” value in series [3] is listed as “concentration-dependent manner”. The “peak levels of quercetin measured in the livers” value in series [4] was “approximately 15 μM”. Also, the “inhibition … of paclitaxel by CYP2C8” value on CYP2C8 is “selectively inhibit”.
As to `O=c1c(O)c(-c2ccc(O)cc2)oc2cc(O)cc(O)c12` [kaempherol], the “inhibition … of paclitaxel by CYP2C8” value at CYP2C8 is “selectively inhibit”.
On to `CC(=O)N1CCN(c2ccc(OCC3COC(Cn4ccnc4)(c4ccc(Cl)cc4Cl)O3)cc2)CC1` (stereo not drawn) [ketoconazole], for which, in series [3], the “inhibition of paclitaxel metabolism by CYP2C8” value is “concentration-dependent manner”. Also, in the series on paclitaxel metabolism [5], the “inhibition of paclitaxel metabolism in humans” value is given as “unable to inhibit paclitaxel metabolism”.
